Assay results from US20100137315A1, “Sphingosine Kinase Inhibitors and Methods of Their Use” (APOGEE BIOTECHNOLOGY CORPORATION, priority 2005, published 2010).

Each molecule was assayed against T1, recombinant human SK (Homo sapiens, UniProt Q9NYA1) (assay: Inhibition of recombinant human SK, LC/MS/MS assay). Conditions: 6 μg/ml compound.
T1 construct: glutathione-S-transferase (GST) (N); made in house; host or cells: bacteria (pGEX vector)
Assay type: biochemical
Experimental: An assay for identifying inhibitors of recombinant human SK has been established (French et al., 2003, Cancer Res 63: 5962). cDNA for human SK was subcloned into a pGEX bacterial expression vector, which results in expression of the enzyme as a fusion protein with glutathione-S-transferase, and the fusion protein is then purified on a column of immobilized glutathione. SK activity is measured by incubation of the recombinant SK with [^3H]sphingosine and 1 mM ATP under defined conditions, followed by extraction of the assay mixture with chloroform:methanol under basic conditions. […] Radioactivity in aliquots of the aqueous phase is then quantified as a measure of [^3H]S1P formation. There is a low background level of partitioning of [^3H]sphingosine into the aqueous phase, and addition of the recombinant SK greatly increases the formation of [^3H]S1P.
In an alternate assay procedure, the recombinant human SK was incubated with unlabeled sphingosine and ATP as described above. After 30 minutes, the reactions were terminated by the addition of acetonitrile to directly extract the newly synthesized S1P. The amount of S1P in the samples is then quantified as follows. C17 base D-erythro-sphingosine and C17 S1P are used as internal standards for sphingosine and S1P, respectively. These seventeen-carbon fatty acid-linked sphingolipids are not naturally produced, making these analogs excellent standards. The lipids are then fractionation by High-Performance Liquid Chromatography using a C8-reverse phase column eluted with 1 mM methanolic ammonium formate/2 mM aqueous ammonium formate. A Finnigan LCQ Classic LC-MS/MS is used in the multiple reaction monitoring positive ionization mode to acquire ions at m/z of 300 (precursor ion)→282 (product ion) for sphingosine and 380→264 for S1P. Calibration curves are generated by plotting the peak area ratios of the synthetic standards for each sphingolipid, and used to determine the normalized amounts of sphingosine and S1P in the samples.
Each Compound of this invention was tested for its ability to inhibit recombinant SK using the LC/MS/MS assay described above. Typically, the Compounds were individually dissolved in dimethylsulfoxide and tested at a final concentration of 6 micrograms/ml.

T1 sequence (Q9NYA1 whole entry): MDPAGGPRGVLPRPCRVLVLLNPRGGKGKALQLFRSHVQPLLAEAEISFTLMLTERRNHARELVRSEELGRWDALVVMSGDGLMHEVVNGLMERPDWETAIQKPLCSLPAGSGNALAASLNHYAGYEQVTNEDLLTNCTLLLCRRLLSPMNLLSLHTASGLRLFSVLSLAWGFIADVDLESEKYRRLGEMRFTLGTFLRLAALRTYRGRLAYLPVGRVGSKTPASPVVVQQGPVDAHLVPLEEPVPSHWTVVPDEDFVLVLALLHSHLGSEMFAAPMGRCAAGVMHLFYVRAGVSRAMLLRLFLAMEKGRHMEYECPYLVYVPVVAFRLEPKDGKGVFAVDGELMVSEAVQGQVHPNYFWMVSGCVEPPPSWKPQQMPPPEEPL

inhibition at 6 µg/mL [%]	SMILES
36	CCCC(=O)Oc1ccc(C=CC(=O)Nc2nc(-c3ccc(C)cc3)cs2)cc1OC [Compound 19, Butyric acid 2-methoxy-4-[2-(4-p-tolyl-thiazol-2-ylcarbamoyl)-vinyl]-phenyl ester]
6	CCCC(=O)Oc1ccc(C=CC(=O)Nc2nc(-c3ccc(Br)cc3)cs2)cc1OC [Compound 20, Butyric acid 4-{2-[4-(4-bromo-phenyl)-thiazol-2-ylcarbamoyl]-vinyl}-2-methoxy-phenyl ester]
26	O=C(C=Cc1ccc2c(c1)OCO2)Nc1nc(-c2ccc(Cl)cc2)cs1 [Compound 21, 3-Benzo[1,3]dioxol-5-yl-N-[4-(4-chloro-phenyl)-thiazol-2-yl]-acrylamide]
34	O=C(Cc1ccc2c(c1)OCO2)Nc1nc(-c2ccc(Cl)cc2)cs1 [Compound 22, 2-Benzo[1,3]dioxol-5-yl-N-[4-(4-chloro-phenyl)-thiazol-2-yl]-acetamide]
45	COc1ccc(CCC(=O)Nc2nc(-c3ccc(Cl)cc3)cs2)cc1OC [Compound 23, N-[4-(4-Chloro-phenyl)-thiazol-2-yl]-3-(3,4-dimethoxy-phenyl)-propionamide]
0	CCCC(=O)Oc1ccc(C(=O)Nc2nc(-c3ccc(Cl)cc3)cs2)cc1OC [Compound 24, Butyric acid 4-[4-(4-chloro-phenyl)-thiazol-2-ylcarbamoyl]-2-methoxy-phenyl ester]
0	CCCC(=O)Oc1ccc(C(=O)Nc2nc(-c3ccc(Cl)cc3)cs2)cc1OC(=O)CCC [Compound 25, Butyric acid 2-butyryloxy-4-[4-(4-chloro-phenyl)-thiazol-2-ylcarbamoyl]-phenyl ester]
0	CCCC(=O)Oc1ccc(CCC(=O)Nc2nc(-c3ccc(Cl)cc3)cs2)cc1OC(=O)CCC [Compound 26, Butyric acid 2-butyryloxy-4-{2-[4-(4-chloro-phenyl)-thiazol-2-ylcarbamoyl]-ethyl}-phenyl ester]
87	CCCC(=O)Oc1ccc(C=CC(=O)Nc2nc(-c3ccc(F)cc3)cs2)cc1OC [Compound 28, Butyric acid 4-{2-[4-(4-fluoro-phenyl)-thiazol-2-ylcarbamoyl]-vinyl}-2-methoxy-phenyl ester]
58	CCCC(=O)Oc1ccc(CC(=O)Nc2nc(-c3ccc(Cl)cc3)cs2)cc1N [Compound 31, Butyric acid 2-amino-4-{[4-(4-chloro-phenyl)-thiazol-2-ylcarbamoyl]-methyl}-phenyl ester]
23	O=C(NCc1ccc(Cl)c(C(F)(F)F)c1)c1nc(-c2ccc(Cl)cc2)cs1 [Compound 37, 4-(4-Chloro-phenyl)-thiazole-2-carboxylic acid 4-chloro-3-trifluoromethyl-benzylamide]
69	O=C(NCc1ccc(F)c(Cl)c1)c1nc(-c2ccc(Cl)cc2)cs1 [Compound 39, 4-(4-Chloro-phenyl)-thiazole-2-carboxylic acid 3-chloro-4-fluoro-benzylamide]
56	O=C(NCc1ccc(F)c(F)c1)c1nc(-c2ccc(Cl)cc2)cs1 [Compound 40, 4-(4-Chloro-phenyl)-thiazole-2-carboxylic acid 3,4-difluoro-benzylamide]
22	COc1ccc(CCNC(=O)c2nc(-c3ccc(Cl)cc3)cs2)cc1Br [Compound 41, 4-(4-Chloro-phenyl)-thiazole-2-carboxylic acid [2-(3-bromo-4-methoxy-phenyl)-ethyl]-amide]
21	O=C(CCc1ccc(F)cc1F)Nc1nc(-c2ccc(Cl)cc2)cs1 [Compound 47, N-[4-(4-Chloro-phenyl)-thiazol-2-yl]-3-(2,4-difluoro-phenyl)-propionamide]
36	CSc1ccc(CNC(=O)c2nc(-c3ccc(Cl)cc3)cs2)cc1 [Compound 51, 4-(4-Chloro-phenyl)-thiazole-2-carboxylic Acid 4-methylsulfanyl-benzylamide]
44	O=C(NCc1ccc(F)c(C(F)(F)F)c1)c1nc(-c2ccc(Cl)cc2)cs1 [Compound 53, 4-(4-Chloro-phenyl)-thiazole-2-carboxylic Acid 4-fluoro-3-trifluoromethyl-benzylamide]
0	O=C(NCCc1ccncc1)c1nc(-c2ccc(Cl)cc2)cs1 [Compound 61, 4-(4-Chloro-phenyl)-thiazole-2-carboxylic Acid (2-pyridin-4-yl-ethyl)-amide]

Continued, molecule first:

SMILES	inhibition at 6 µg/mL [%]
O=C(NCc1cc(F)cc(F)c1)c1nc(-c2ccc(Cl)cc2)cs1 [Compound 36, 4-(4-Chloro-phenyl)-thiazole-2-carboxylic acid 3,5-difluoro-benzylamide]	14
O=C(NCc1ccc(F)cc1Cl)c1nc(-c2ccc(Cl)cc2)cs1 [Compound 38, 4-(4-Chloro-phenyl)-thiazole-2-carboxylic acid 2-chloro-4-fluoro-benzylamide]	75
O=C(NCc1cc(F)c(F)c(F)c1)c1nc(-c2ccc(Cl)cc2)cs1 [Compound 42, 4-(4-Chloro-phenyl)-thiazole-2-carboxylic acid 3,4,5-trifluoro-benzylamide]	79
O=C(NCc1cccc(OC(F)(F)F)c1)c1nc(-c2ccc(Cl)cc2)cs1 [Compound 43, 4-(4-Chloro-phenyl)-thiazole-2-carboxylic acid 3-trifluoromethoxy-benzylamide]	59
O=C(NCCc1cccc(Oc2ccccc2)c1)c1nc(-c2ccc(Cl)cc2)cs1 [Compound 44, 4-(4-Chloro-phenyl)-thiazole-2-carboxylic acid [2-(3-phenoxy-phenyl)-ethyl]-amide]	69
CN1CCCC1CCNC(=O)c1nc(-c2ccc(Cl)cc2)cs1 (stereo not drawn) [Compound 45, 4-(4-Chloro-phenyl)-thiazole-2-carboxylic acid [2-(1-methyl-pyrrolidin-2-yl)-ethyl]-amide]	42
CN1CCN(NC(=O)c2nc(-c3ccc(Cl)cc3)cs2)CC1 [Compound 46, 4-(4-Chloro-phenyl)-thiazole-2-carboxylic Acid (4-methyl-piperazin-1-yl)-amide]	80
CCSCCNC(=O)c1nc(-c2ccc(Cl)cc2)cs1 [Compound 48, 4-(4-Chloro-phenyl)-thiazole-2-carboxylic Acid (2-ethylsulfanyl-ethyl)-amide]	56
O=C(NCc1ccc(C(F)(F)F)cc1F)c1nc(-c2ccc(Cl)cc2)cs1 [Compound 49, 4-(4-Chloro-phenyl)-thiazole-2-carboxylic Acid 2-fluoro-4-trifluoromethyl-benzylamide]	67
O=C(Nc1cc(F)cc(F)c1)c1nc(-c2ccc(Cl)cc2)cs1 [Compound 50, 4-(4-Chloro-phenyl)-thiazole-2-carboxylic Acid (3,5-difluoro-phenyl)-amide]	21
O=C(NCc1ccc(OC(F)(F)F)cc1)c1nc(-c2ccc(Cl)cc2)cs1 [Compound 52, 4-(4-Chloro-phenyl)-thiazole-2-carboxylic Acid 4-trifluoromethoxy-benzylamide]	78
O=C(NCc1ccc(Oc2ccccc2)cc1)c1nc(-c2ccc(Cl)cc2)cs1 [Compound 54, 4-(4-Chloro-phenyl)-thiazole-2-carboxylic Acid 4-phenoxy-benzylamide]	25
O=C(NCc1ccc(-c2ccccc2)cc1)c1nc(-c2ccc(Cl)cc2)cs1 [Compound 55, 4-(4-Chloro-phenyl)-thiazole-2-carboxylic Acid (biphenyl-4-ylmethyl)-amide]	20
CC(NC(=O)c1nc(-c2ccc(Cl)cc2)cs1)c1ccc(Cl)cc1 (stereo not drawn) [Compound 56, 4-(4-Chloro-phenyl)-thiazole-2-carboxylic Acid [1-(4-chloro-phenyl)-ethyl]-amide]	81
CC(C)(C)NCCCNC(=O)c1nc(-c2ccc(Cl)cc2)cs1 [Compound 57, 4-(4-Chloro-phenyl)-thiazole-2-carboxylic Acid (3-tert-butylamino-propyl)-amide]	16
O=C(NCc1ccc(C(F)(F)F)cc1)c1nc(-c2ccc(Cl)cc2)cs1 [Compound 58, 4-(4-Chloro-phenyl)-thiazole-2-carboxylic Acid 4-trifluoromethyl-benzylamide]	86
O=C(NCCCN1CCCC1)c1nc(-c2ccc(Cl)cc2)cs1 [Compound 59, 4-(4-Chloro-phenyl)-thiazole-2-carboxylic Acid (3-pyrrolidin-1-yl-propyl)-amide]	46
O=C(NCc1cc(C(F)(F)F)cc(C(F)(F)F)c1)c1nc(-c2ccc(Cl)cc2)cs1 [Compound 60, 4-(4-Chloro-phenyl)-thiazole-2-carboxylic Acid 3,5-bis-trifluoromethyl-benzylamide]	87
